Like-named read-outs stand apart in the source and are kept apart here.
What was measured:
Test in all cases: Kirby-Bauer agar disk diffusion
MRSA USF659 = format: cell-based, Staphylococcus aureus; parameters: Kirby-Bauer Disc Diffusion Test Results: unit not given here; conditions: for zone of inhibition at 20 µg/disc: Staphylococcus aureus, MRSA
How it was run: (§1)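 Kirby-Bauer disk diffusion on agar with 6-mm air-dried disks carrying 20 μg compound against β-lactamase-producing MRSA clinical isolates. Values are mean inhibition-zone diameters (mm, triplicate) read after 24 h.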

MRSA USF652 = format: cell-based, Staphylococcus aureus; parameters: Kirby-Bauer Disc Diffusion Test Results: unit not given here; conditions: for zone of inhibition at 20 µg/disc: Staphylococcus aureus, MRSA
How it was run: as §1

MRSA USF656 = format: cell-based, Staphylococcus aureus; parameters: Kirby-Bauer Disc Diffusion Test Results: unit not given here; conditions: for zone of inhibition at 20 µg/disc: Staphylococcus aureus, MRSA
How it was run: as §1

MRSA USF657 = format: cell-based, Staphylococcus aureus; parameters: Kirby-Bauer Disc Diffusion Test Results: unit not given here; conditions: for zone of inhibition at 20 µg/disc: Staphylococcus aureus, MRSA
How it was run: as §1

MRSA USF654 = format: cell-based, Staphylococcus aureus; parameters: Kirby-Bauer Disc Diffusion Test Results: unit not given here; conditions: for zone of inhibition at 20 µg/disc: Staphylococcus aureus, MRSA
How it was run: as §1

MRSA USF655 = format: cell-based, Staphylococcus aureus; parameters: Kirby-Bauer Disc Diffusion Test Results: unit not given here; conditions: for zone of inhibition at 20 µg/disc: Staphylococcus aureus, MRSA
How it was run: as §1

MRSA USF658 = format: cell-based, Staphylococcus aureus; parameters: Kirby-Bauer Disc Diffusion Test Results: unit not given here; conditions: for zone of inhibition at 20 µg/disc: Staphylococcus aureus, MRSA
How it was run: as §1

MRSA USF653 = format: cell-based, Staphylococcus aureus; parameters: Kirby-Bauer Disc Diffusion Test Results: unit not given here; conditions: for zone of inhibition at 20 µg/disc: Staphylococcus aureus, MRSA
How it was run: as §1

S. simulans (ATCC 11631) = format: cell-based, Staphylococcus simulans; conditions: 6-mm disks, 20 μg test compound
How it was run: (§2)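 Agar disk diffusion used 6-mm air-dried disks carrying 20 μg of compound. Values are mean diameters (mm) of the growth-inhibition zone at 24 h, from triplicate experiments. S. epidermidis and S. simulans were clinical isolates.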

[1] = tested on: S. saprophyticus (ATCC 3552); format: cell-based, Staphylococcus saprophyticus; conditions: 6-mm disks, 20 μg test compound
How it was run: as §2

[2] = tested on: Staphylococcus aureus (ATCC 25923); format: cell-based; conditions: 6-mm disks, 20 μg test compound
How it was run: as §2

[3] = tested on: Staphylococcus epidermidis; format: cell-based; conditions: 6-mm disks, 20 μg test compound
How it was run: as §2

Staph aureus 525 = format: cell-based, Staphylococcus aureus
[4] = Table 1, 6-mm disks, 20 μg test compound, 24 h, triplicate, read-out: zone of growth inhibition, average diameter
[5] = Table 4, 20 μg disk loading, read-out: Zones of Inhibition
[6] = Table 6, 20 μg disk loading, read-out: The Zone of Inhibition
[7] = Table 3, 6-mm disks, 20 μg test compound, 24 hours
[8] = Table 5, beta-lactamase producing strain

**Q.** For `CC1(C)S[C@@H]2[C@H](NC(=O)Cc3ccccc3)C(=O)N2[C@H]1C(=O)O` [PenG, penicillin G, reference compound], which zone of inhibition at 20 µg/disc (MRSA USF659; [4]) is on record?
**A.** 15 mm

**Q.** What about the zone of inhibition at 20 µg/disc (MRSA USF659; [5]) of the same compound?
**A.** 15 mm

**Q.** What about the zone of inhibition at 20 µg/disc (MRSA USF659; [6]) of the same compound?
**A.** 16 mm

**Q.** And the “zone of growth inhibition, average diameter” value (shortened to “zone of growth inhibition”) (MRSA USF659; [7])?
**A.** 15 mm

**Q.** And the “Kirby-Bauer Disc Diffusion Test Results” value (MRSA USF659; [8])?
**A.** 16

**Q.** What about the zone of inhibition at 20 µg/disc (MRSA USF652; [4]) of the same compound?
**A.** 8 mm

**Q.** What about the zone of inhibition at 20 µg/disc (MRSA USF652; [5]) of the same compound?
**A.** 8 mm

**Q.** And the zone of inhibition at 20 µg/disc (MRSA USF652; [6])?
**A.** 8 mm

**Q.** What about the “zone of growth inhibition” value (MRSA USF652; [7]) of the same compound?
**A.** 8 mm

**Q.** What about the “Kirby-Bauer Disc Diffusion Test Results” value (MRSA USF652; [8]) of the same compound?
**A.** 8

**Q.** What about the zone of inhibition at 20 µg/disc (MRSA USF656; [4]) of the same compound?
**A.** 12 mm

**Q.** And the zone of inhibition at 20 µg/disc (MRSA USF656; [5])?
**A.** 12 mm

**Q.** And the zone of inhibition at 20 µg/disc (MRSA USF656; [6])?
**A.** 10 mm

**Q.** And the “zone of growth inhibition” value (MRSA USF656; [7])?
**A.** 12 mm

**Q.** And the “Kirby-Bauer Disc Diffusion Test Results” value (MRSA USF656; [8])?
**A.** 10

**Q.** And the zone of inhibition at 20 µg/disc (MRSA USF657; [4])?
**A.** 12 mm

**Q.** And the zone of inhibition at 20 µg/disc (MRSA USF657; [5])?
**A.** 12 mm

**Q.** What about the zone of inhibition at 20 µg/disc (MRSA USF657; [6]) of the same compound?
**A.** 12 mm

**Q.** And the “zone of growth inhibition” value (MRSA USF657; [7])?
**A.** 12 mm

**Q.** What about the “Kirby-Bauer Disc Diffusion Test Results” value (MRSA USF657; [8]) of the same compound?
**A.** 12

**Q.** And the zone of inhibition at 20 µg/disc (MRSA USF654; [4])?
**A.** 10 mm

**Q.** And the zone of inhibition at 20 µg/disc (MRSA USF654; [5])?
**A.** 9 mm

**Q.** And the zone of inhibition at 20 µg/disc (MRSA USF654; [6])?
**A.** 9 mm

**Q.** And the “zone of growth inhibition” value (MRSA USF654; [7])?
**A.** 10 mm

**Q.** What about the “Kirby-Bauer Disc Diffusion Test Results” value (MRSA USF654; [8]) of the same compound?
**A.** 10

**Q.** And the zone of inhibition at 20 µg/disc (MRSA USF655; [4])?
**A.** 14 mm

**Q.** And the zone of inhibition at 20 µg/disc (MRSA USF655; [5])?
**A.** 14 mm

**Q.** What about the zone of inhibition at 20 µg/disc (MRSA USF655; [6]) of the same compound?
**A.** 13 mm

**Q.** What about the “zone of growth inhibition” value (MRSA USF655; [7]) of the same compound?
**A.** 14 mm

**Q.** What about the “Kirby-Bauer Disc Diffusion Test Results” value (MRSA USF655; Table 5) of the same compound?
**A.** 13

**Q.** And the zone of inhibition at 20 µg/disc (MRSA USF658; [4])?
**A.** 19 mm

**Q.** What about the zone of inhibition at 20 µg/disc (MRSA USF658; [5]) of the same compound?
**A.** 19 mm

**Q.** And the zone of inhibition at 20 µg/disc (MRSA USF658; [6])?
**A.** 18 mm

**Q.** What about the “zone of growth inhibition” value (MRSA USF658; [7]) of the same compound?
**A.** 19 mm

**Q.** And the “Kirby-Bauer Disc Diffusion Test Results” value (MRSA USF658; [8])?
**A.** 18

**Q.** And the zone of inhibition at 20 µg/disc (MRSA USF653; [4])?
**A.** 16 mm

**Q.** And the zone of inhibition at 20 µg/disc (MRSA USF653; [5])?
**A.** 15 mm

**Q.** What about the zone of inhibition at 20 µg/disc (MRSA USF653; [6]) of the same compound?
**A.** 15 mm

**Q.** What about the “zone of growth inhibition” value (MRSA USF653; [7]) of the same compound?
**A.** 16 mm

**Q.** And the “Kirby-Bauer Disc Diffusion Test Results” value (MRSA USF653; [8])?
**A.** 15

**Q.** What about the zone of inhibition at 20 µg/disc (S. simulans (ATCC 11631); Staphylococcus simulans, ATCC11631, Table 1, 24 h, triplicate, read-out: zone of growth inhibition, average diameter) of the same compound?
**A.** 13 mm

**Q.** What about the “zone of growth inhibition” value (S. simulans (ATCC 11631); Table 3, 24 hours) of the same compound?
**A.** 13 mm

**Q.** And the zone of inhibition at 20 µg/disc ([1]; Staphylococcus saprophyticus, ATCC3552, Table 1, 24 h, triplicate, read-out: zone of growth inhibition, average diameter)?
**A.** 30 mm

**Q.** And the “zone of growth inhibition” value ([1]; Table 3, 24 hours)?
**A.** 30 mm

**Q.** What about the zone of inhibition at 20 µg/disc ([2]; Staphylococcus aureus, ATCC25923, Table 1, 24 h, triplicate, read-out: zone of growth inhibition, average diameter) of the same compound?
**A.** 34 mm

**Q.** What about the “zone of growth inhibition” value ([2]; Table 3, 24 hours) of the same compound?
**A.** 34 mm

**Q.** And the zone of inhibition at 20 µg/disc ([3]; Staphylococcus epidermidis, Table 1, 24 h, triplicate, read-out: zone of growth inhibition, average diameter)?
**A.** 50 mm

**Q.** What about the “zone of growth inhibition” value ([3]; Table 3, 24 hours) of the same compound?
**A.** 50 mm

**Q.** What about the zone of inhibition at 20 µg/disc (Staph aureus 525; Staphylococcus aureus, 525, Table 4, 20 μg disk loading, read-out: Zones of Inhibition) of the same compound?
**A.** 33 mm

**Q.** What about the “Kirby-Bauer Disc Diffusion Test Results” value (Staph aureus 525; Table 5) of the same compound?
**A.** 33
